Results on 13 molecules are retold here after ChEMBL document CHEMBL5385952, “Facile Synthesis and First Antifungal Exploration of Tetracyclic Meroterpenoids: (+)-Aureol, (-)-Pelorol, and Its Analogs” (J Nat Prod, 2024).

Test [1] deals with Sclerotinia sclerotiorum. The experiment in a line: Antifungal activity against Sclerotinia sclerotiorum at 150 uM. Format: functional.
The subject of test [2] is Rhizoctonia solani. As to the kind of experiment: Antifungal activity against Rhizoctonia solani at 150 uM. Format: functional.
Another test deals with Botrytis cinerea. The experiment in a line: Antifungal activity against Botrytis cinerea at 150 uM. Format: functional.
The next test concerns Fusarium graminearum. The experiment in a line: Antifungal activity against Fusarium graminearum at 150 uM. Format: functional.
The test system of a further test is Phytophthora capsici. As to the kind of experiment: Antifungal activity against Phytophthora capsici at 150 uM. Format: functional.
Test [3] relates to Rhizoctonia solani. The experiment in a line: Antifungal activity against Rhizoctonia solani.
In test [4] the test system is Sclerotinia sclerotiorum. As to the kind of experiment: Antifungal activity against Sclerotinia sclerotiorum.

SMILES strings stand for the structures.

Consider `CC1(C)CCC[C@]2(C)[C@H]3Cc4c(O)c(O)cc(C=O)c4[C@]3(C)CC[C@@H]12`, for which the Activity in the test on Sclerotinia sclerotiorum [1] was determined as 28%; in the test with Rhizoctonia solani [2], 43%; in the test with Botrytis cinerea, 33%; with Fusarium graminearum it was 55%; with Phytophthora capsici it was 29%.

Turning to `Cc1cc2c(cc1O)C[C@@H]1[C@@]3(C)CCCC(C)(C)[C@@H]3CC[C@@]21C`, the Activity turned out to be 31% in the test with Sclerotinia sclerotiorum [1]; 58% in the test with Rhizoctonia solani [2]; 24% with Botrytis cinerea; 32% with Fusarium graminearum; 9% in the test on Phytophthora capsici.

As to `CC1(C)CCC[C@]2(C)[C@H]3Cc4cc(O)cc(O)c4[C@]3(C)CC[C@@H]12`, the Activity was determined as 43% in the test with Sclerotinia sclerotiorum [1]; 68% in the test with Rhizoctonia solani [2]; 39% with Botrytis cinerea; 60% in the test on Fusarium graminearum; 65% in the test on Phytophthora capsici.

With `C[C@H]1CC[C@H]2C(C)(C)CCC[C@]23Oc2ccc(O)cc2C[C@]13C` [AUREOL], the EC50 in the test on Rhizoctonia solani [3] is 6.9 µM; in the test with Sclerotinia sclerotiorum [4], 19 µM.

In the case of `Cc1cc(O)cc2c1[C@]1(C)CC[C@H]3C(C)(C)CCC[C@]3(C)[C@H]1C2`, the Activity in the test on Sclerotinia sclerotiorum [1] is 11%; in the test on Rhizoctonia solani [2] it was 16%; with Botrytis cinerea, 7%; with Fusarium graminearum it was 11%; in the test with Phytophthora capsici, 5%.

With `CC1(C)CCC[C@]2(C)[C@H]3Cc4c(cc(C=O)c(O)c4O)[C@]3(C)CC[C@@H]12`, the Activity was found to be 34% with Sclerotinia sclerotiorum [1]; 3% with Rhizoctonia solani [2]; 15% with Botrytis cinerea; 37% in the test with Fusarium graminearum; 3% in the test with Phytophthora capsici.

On to `CC1(C)CCC[C@]2(C)[C@H]3Cc4cc(O)ccc4[C@]3(C)CC[C@@H]12`, for which the Activity in the test with Sclerotinia sclerotiorum [1] is reported as 51%; in the test with Rhizoctonia solani [2] it was 62%; in the test with Botrytis cinerea, 34%; with Fusarium graminearum, 37%; in the test with Phytophthora capsici, 33%. The figures for the EC50 with Rhizoctonia solani [3] and with Sclerotinia sclerotiorum [4] were 34 µM and above 150 µM, respectively.

With `COC(=O)c1cc(O)c(O)c2c1[C@]1(C)CC[C@H]3C(C)(C)CCC[C@]3(C)[C@H]1C2` [PELOROL], the Activity is reported as 75% in the test on Sclerotinia sclerotiorum [1]; 87% in the test with Rhizoctonia solani [2]; 52% in the test on Botrytis cinerea; 62% with Fusarium graminearum; 40% with Phytophthora capsici. Further, the EC50 was 7.7 µM in the test on Rhizoctonia solani [3] and 49 µM in the test on Sclerotinia sclerotiorum [4].

For `Cc1cc(O)c(O)c2c1[C@]1(C)CC[C@H]3C(C)(C)CCC[C@]3(C)[C@H]1C2`, the Activity in the test on Sclerotinia sclerotiorum [1] turned out to be 49%; in the test on Rhizoctonia solani [2] it was 50%; with Botrytis cinerea, 70%; with Fusarium graminearum, 42%; in the test with Phytophthora capsici, 59%.

On to `CC1(C)CCC[C@]2(C)[C@H]3Cc4c(O)c(O)cc(C(=O)O)c4[C@]3(C)CC[C@@H]12`, for which the Activity came to 76% in the test with Sclerotinia sclerotiorum [1]; 73% in the test with Rhizoctonia solani [2]; 56% in the test on Botrytis cinerea; 51% with Fusarium graminearum; 55% in the test with Phytophthora capsici. Besides, the EC50 was 18 µM with Rhizoctonia solani [3] and 26 µM in the test with Sclerotinia sclerotiorum [4].

Regarding `CC1(C)CCC[C@]2(C)[C@H]3Cc4cc(O)ccc4O[C@]3(C)CC[C@@H]12`, the EC50 with Rhizoctonia solani [3] was found to be 16 µM; in the test with Sclerotinia sclerotiorum [4] it was 29 µM.

As to `CCc1cc(O)c(O)c2c1[C@]1(C)CC[C@H]3C(C)(C)CCC[C@]3(C)[C@H]1C2`, the Activity turned out to be 37% with Sclerotinia sclerotiorum [1]; 41% in the test on Rhizoctonia solani [2]; 37% in the test on Botrytis cinerea; 53% in the test with Fusarium graminearum; 32% in the test with Phytophthora capsici.

For the molecule `CC1(C)CCC[C@]2(C)[C@H]3Cc4c(ccc(O)c4O)[C@]3(C)CC[C@@H]12`, the Activity in the test with Sclerotinia sclerotiorum [1] came to 63%; in the test with Rhizoctonia solani [2], 62%; in the test on Botrytis cinerea, 43%; with Fusarium graminearum it was 71%; in the test on Phytophthora capsici, 60%.

The EC50 is the midpoint of the concentration-response curve. Read a low EC50 as an effect from little substance.
